Patent US9708318B2, “Bicyclic heterocycles as FGFR4 inhibitors” (Incyte Corporation, priority 2015, dated 2017)
Like-named read-outs stand apart in the source and are kept apart here.

Key:
FGFR1 = FGFR1 (Homo sapiens (Human), UniProt P11362); experiment: FGFR Enzymatic Assay (FRET peptide phosphorylation), FGFR1
FGFR3 enzyme = FGFR3 enzyme (Homo sapiens (Human), UniProt P22607); experiment: FGFR Enzymatic Assay (FRET peptide phosphorylation), FGFR3; format: biochemical; settings: read-out: FGFR3 IC50
Chain of FGFR3 enzyme (P22607 23-806): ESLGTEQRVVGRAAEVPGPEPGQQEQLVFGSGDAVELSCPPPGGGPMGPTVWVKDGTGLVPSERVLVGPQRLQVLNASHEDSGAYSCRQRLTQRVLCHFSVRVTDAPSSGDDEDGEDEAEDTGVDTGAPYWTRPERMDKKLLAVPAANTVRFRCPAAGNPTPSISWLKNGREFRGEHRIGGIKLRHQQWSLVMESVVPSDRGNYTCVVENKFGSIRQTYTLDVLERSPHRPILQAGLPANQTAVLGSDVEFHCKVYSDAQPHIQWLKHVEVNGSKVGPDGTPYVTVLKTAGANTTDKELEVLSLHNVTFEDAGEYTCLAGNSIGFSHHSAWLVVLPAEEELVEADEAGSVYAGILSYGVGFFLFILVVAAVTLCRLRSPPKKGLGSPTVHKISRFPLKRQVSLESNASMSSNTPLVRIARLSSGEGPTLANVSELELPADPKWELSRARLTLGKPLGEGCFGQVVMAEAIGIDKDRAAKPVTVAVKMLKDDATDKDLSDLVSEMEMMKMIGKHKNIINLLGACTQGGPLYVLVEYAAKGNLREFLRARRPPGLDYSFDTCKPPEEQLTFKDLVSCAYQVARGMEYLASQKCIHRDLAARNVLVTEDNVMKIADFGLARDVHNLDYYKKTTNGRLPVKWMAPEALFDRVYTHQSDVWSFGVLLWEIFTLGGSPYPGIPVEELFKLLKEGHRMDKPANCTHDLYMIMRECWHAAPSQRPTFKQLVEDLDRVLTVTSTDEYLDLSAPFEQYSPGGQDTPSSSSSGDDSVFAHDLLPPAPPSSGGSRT
Experimental: (§1) The inhibitor potency of the exemplified compounds was measured in an enzyme assay that measures peptide phosphorylation using FRET measurements to detect product formation. Inhibitors were serially diluted in DMSO and a volume of 0.5 μL was transferred to the wells of a 384-well plate.
(§2) GraphPad prism3 was used to analyze the data.

FGFR2 = FGFR2 (Homo sapiens (Human), UniProt P21802); experiment: FGFR Enzymatic Assay (FRET peptide phosphorylation), FGFR2; format: biochemical
Chain of FGFR2 (P21802 22-821): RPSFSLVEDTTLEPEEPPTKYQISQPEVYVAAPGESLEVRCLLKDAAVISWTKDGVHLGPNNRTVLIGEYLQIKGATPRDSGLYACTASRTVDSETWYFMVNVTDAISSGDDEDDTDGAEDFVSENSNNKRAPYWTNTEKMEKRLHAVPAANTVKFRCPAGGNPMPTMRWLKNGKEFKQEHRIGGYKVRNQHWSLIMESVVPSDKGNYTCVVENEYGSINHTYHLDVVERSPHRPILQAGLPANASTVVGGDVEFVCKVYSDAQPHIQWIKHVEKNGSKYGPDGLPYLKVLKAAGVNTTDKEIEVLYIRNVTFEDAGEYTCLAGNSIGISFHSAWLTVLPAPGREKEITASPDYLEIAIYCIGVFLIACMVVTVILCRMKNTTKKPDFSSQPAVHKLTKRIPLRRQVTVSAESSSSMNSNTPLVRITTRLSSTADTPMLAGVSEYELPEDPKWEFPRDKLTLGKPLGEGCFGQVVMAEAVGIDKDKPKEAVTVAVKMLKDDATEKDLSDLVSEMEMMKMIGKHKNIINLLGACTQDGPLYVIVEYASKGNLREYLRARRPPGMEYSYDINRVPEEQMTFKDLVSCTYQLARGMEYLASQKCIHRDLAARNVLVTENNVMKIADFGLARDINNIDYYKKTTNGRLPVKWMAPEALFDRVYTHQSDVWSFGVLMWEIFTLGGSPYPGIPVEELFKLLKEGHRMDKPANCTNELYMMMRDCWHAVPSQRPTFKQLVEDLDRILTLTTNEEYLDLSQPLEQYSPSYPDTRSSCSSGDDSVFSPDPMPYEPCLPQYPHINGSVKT
Experimental: as §1
The enzymes were purchased from Millipore or Invitrogen.
as §2

[1] = FGFR1 IC50 (nM), pre-incubated for 4 hours
[2] = FGFR1 IC50 (nM), pre-incubated for 5 to 10 minutes
[3] = pre-incubated for 5 to 10 minutes

Chain of FGFR1 (P11362 22-822): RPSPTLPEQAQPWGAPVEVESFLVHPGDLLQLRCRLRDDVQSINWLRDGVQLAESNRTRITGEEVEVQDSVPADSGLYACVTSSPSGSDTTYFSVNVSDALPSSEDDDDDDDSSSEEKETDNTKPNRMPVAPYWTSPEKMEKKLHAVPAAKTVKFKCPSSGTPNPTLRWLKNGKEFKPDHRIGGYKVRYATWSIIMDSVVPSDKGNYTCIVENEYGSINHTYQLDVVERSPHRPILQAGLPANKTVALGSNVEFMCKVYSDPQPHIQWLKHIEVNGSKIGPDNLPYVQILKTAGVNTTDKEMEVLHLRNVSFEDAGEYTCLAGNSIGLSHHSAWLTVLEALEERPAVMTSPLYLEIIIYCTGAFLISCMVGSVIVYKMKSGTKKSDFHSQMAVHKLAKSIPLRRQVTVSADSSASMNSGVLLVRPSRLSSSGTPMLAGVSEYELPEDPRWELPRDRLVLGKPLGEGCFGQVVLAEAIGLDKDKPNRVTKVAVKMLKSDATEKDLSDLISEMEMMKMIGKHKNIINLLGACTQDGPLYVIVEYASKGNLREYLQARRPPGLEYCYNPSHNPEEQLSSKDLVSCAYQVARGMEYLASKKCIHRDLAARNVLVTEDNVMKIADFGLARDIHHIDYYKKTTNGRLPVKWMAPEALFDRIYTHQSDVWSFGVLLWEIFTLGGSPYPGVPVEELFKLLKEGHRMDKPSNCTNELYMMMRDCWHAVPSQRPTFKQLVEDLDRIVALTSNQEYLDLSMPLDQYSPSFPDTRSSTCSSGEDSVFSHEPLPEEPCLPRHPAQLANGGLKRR

| Compound | IC50 (FGFR1; [1]) [nM] | IC50 (FGFR3 enzyme; pre-incubated for 4 hours) [nM] | IC50 (FGFR2; pre-incubated for 4 hours) [nM] | IC50 (FGFR1; [2]) [nM] | IC50 (FGFR3 enzyme; [3]) [nM] | IC50 (FGFR2; [3]) [nM] | IC50 (FGFR1; read-out: FGFR1 IC50, pre-incubated for 5 to 10 minutes) [nM] | IC50 (FGFR1; read-out: FGFR1 IC50, pre-incubated for 4 hours) [nM] |
| --- | --- | --- | --- | --- | --- | --- | --- | --- |
| CCc1nnc(CN2C(=O)N(c3c(F)c(OC)cc(OC)c3F)Cc3cnc(-c4cn(C)nc4C)cc32)o1 [Example 67, 3-(2,6-difluoro-3,5-dimethoxyphenyl)-7-(1,3-dimethyl-1H-pyrazol-4-yl)-1-((5-ethyl-1,3,4-oxadiazol-2-yl)methyl)-3,4-dihydropyrido[4,3-d]pyrimidin-2(1H)-one] | […] | < 10 | < 10 |  |  |  |  |  |
| COc1cc(OC)c(F)c(N2Cc3cnc(-c4cn(CCN5CCOCC5)nc4C)cc3C3(CC3)C2=O)c1F [Example 52, 2′-(2,6-difluoro-3,5-dimethoxyphenyl)-6′-(3-methyl-1-(2-morpholinoethyl)-1H-pyrazol-4-yl)-1′H-spiro[cyclopropane-1,4′-[2,7]naphthyridin]-3′(2′H)-one] | 30 to 200 | < 10 | 10 to 30 |  |  |  |  |  |
| COc1cc(OC)c(F)c(N2Cc3cnc(-c4cn(C)nc4C)cc3N(CC3CCOCC3)C2=O)c1F [Example 37, 3-(2,6-difluoro-3,5-dimethoxyphenyl)-7-(1,3-dimethyl-1H-pyrazol-4-yl)-1-((tetrahydro-2H-pyran-4-yl)methyl)-3,4-dihydropyrido[4,3-d]pyrimidin-2(1H)-one] | 10 to 30 | < 10 | < 10 |  |  |  |  |  |
| CCn1cc(CN2C(=O)N(c3c(F)c(OC)cc(OC)c3F)Cc3cnc(-c4cnn(C)c4)cc32)cn1 [Example 145, 3-(2,6-difluoro-3,5-dimethoxyphenyl)-1-((1-ethyl-1H-pyrazol-4-yl)methyl)-7-(1-methyl-1H-pyrazol-4-yl)-3,4-dihydropyrido[4,3-d]pyrimidin-2(1H)-one] |  |  |  |  | < 10 | < 10 | < 10 |  |
| COc1cc(OC)c(F)c(N2Cc3cnc(-c4cn(C)nc4C)cc3N(Cc3ccccn3)C2=O)c1F [Example 94, 3-(2,6-difluoro-3,5-dimethoxyphenyl)-7-(1,3-dimethyl-1H-pyrazol-4-yl)-1-(pyridin-2-ylmethyl)-3,4-dihydropyrido[4,3-d]pyrimidin-2(1H)-one] |  | < 10 | < 10 |  |  |  |  | < 10 |

Continued, values first:

| IC50 (FGFR1; [1]) [nM] | IC50 (FGFR3 enzyme; pre-incubated for 4 hours) [nM] | IC50 (FGFR2; pre-incubated for 4 hours) [nM] | IC50 (FGFR1; [2]) [nM] | IC50 (FGFR3 enzyme; [3]) [nM] | IC50 (FGFR2; [3]) [nM] | IC50 (FGFR1; read-out: FGFR1 IC50, pre-incubated for 5 to 10 minutes) [nM] | IC50 (FGFR1; read-out: FGFR1 IC50, pre-incubated for 4 hours) [nM] | Compound |
| --- | --- | --- | --- | --- | --- | --- | --- | --- |
| […] | […] | […] |  |  |  |  |  | COc1cc(OC)c(F)c(N2Cc3cnc(-c4cn(C)nc4C)cc3N(CCc3cnn(C)c3)C2=O)c1F [Example 114, 3-(2,6-difluoro-3,5-dimethoxyphenyl)-7-(1,3-dimethyl-1H-pyrazol-4-yl)-1-(2-(1-methyl-1H-pyrazol-4-yl)ethyl)-3,4-dihydropyrido[4,3-d]pyrimidin-2(1H)-one] |
| […] | […] | […] |  |  |  |  |  | CCCn1cc(N2C(=O)N(c3c(F)c(OC)cc(OC)c3F)Cc3cnc(-c4cn(C)nc4C)cc32)cn1 [Example 132, 3-(2,6-difluoro-3,5-dimethoxyphenyl)-7-(1,3-dimethyl-1H-pyrazol-4-yl)-1-(1-propyl-1H-pyrazol-4-yl)-3,4-dihydropyrido[4,3-d]pyrimidin-2(1H)-one] |
|  |  |  | […] | […] | […] |  |  | CCN1C(=O)N(c2c(F)c(OC)cc(OC)c2F)Cc2cnc(-c3ccn(C)n3)cc21 [Example 141, 3-(2,6-difluoro-3,5-dimethoxyphenyl)-1-ethyl-7-(1-methyl-1H-pyrazol-3-yl)-3,4-dihydropyrido[4,3-d]pyrimidin-2(1H)-one] |
| […] | […] | […] | […] | […] | […] |  |  | COc1cc(OC)c(F)c(N2Cc3cnc(-c4cn(C)nc4C)cc3N(Cc3ccncc3)C2=O)c1F [Example 69, 3-(2,6-difluoro-3,5-dimethoxyphenyl)-7-(1,3-dimethyl-1H-pyrazol-4-yl)-1-(pyridin-4-ylmethyl)-3,4-dihydropyrido[4,3-d]pyrimidin-2(1H)-one] |
| […] | […] | […] |  |  |  |  |  | COc1cc(OC)c(F)c(N2Cc3cnc(-c4cn(C)nc4C)cc3N(C(C)C)C2=O)c1F [Example 90, 3-(2,6-difluoro-3,5-dimethoxyphenyl)-7-(1,3-dimethyl-1H-pyrazol-4-yl)-1-isopropyl-3,4-dihydropyrido[4,3-d]pyrimidin-2(1H)-one] |
| […] | […] | […] |  |  |  |  |  | COc1cc(OC)c(F)c(N2Cc3cnc(-c4cn(C)nc4C)cc3N(Cc3cc(C)no3)C2=O)c1F [Example 35, 3-(2,6-difluoro-3,5-dimethoxyphenyl)-7-(1,3-dimethyl-1H-pyrazol-4-yl)-1-((3-methylisoxazol-5-yl)methyl)-3,4-dihydropyrido[4,3-d]pyrimidin-2(1H)-one] |
| […] | […] | […] |  |  |  |  |  | COc1cc(OC)c(F)c(N2Cc3cnc(-c4cn(C)nc4C)cc3N(Cc3cc(C)on3)C2=O)c1F [Example 31, 3-(2,6-difluoro-3,5-dimethoxyphenyl)-7-(1,3-dimethyl-1H-pyrazol-4-yl)-1-((5-methylisoxazol-3-yl)methyl)-3,4-dihydropyrido[4,3-d]pyrimidin-2(1H)-one] |
